The compounds below were run against T1, cannabinoid CB1 (Homo sapiens, UniProt P21554) (assay: Competition binding assay for cannabinoid CB1 affinity (3H-CP55,940 displacement)). Conditions: membranes from cells expressing the receptor, 0.5 nM 3H-CP55,940; Ki by Cheng-Prusoff; read-out: Ki values as measured in the above assay.
T1 construct: purchased
Procedure: Non-specific binding was defined in the presence of 10 μM CP55,940. For saturation studies, concentrations of ^3H—CP55,940 ranging from 0.1-5 nM were incubated with membranes in the presence and absence of 10 μM CP55,940. Assays were terminated after incubation for 1½ hours by rapid filtration onto 0.3% polyethylenamine treated GF/C filterplates using a BRANDEL cell harvester. The plates were dried and MICROSCINT scintillation cocktail was added, after which the bound radioactivity was quantified using a TOPCOUNT scintillation counter.
The dissociation constant (Kd) of ^3H—CP55,940 at the CB1 and CB2 receptor were determined by plotting specific binding at each concentration of radioligand, and analysis by non-linear regression. For competition studies, the concentration of each drug that inhibited 50 percent of ^3H—CP55,940 binding (IC50) was determined by non-linear regression analysis of the radioligand displacement curves. Affinity constants (K) were calculated using the equation derived by Cheng and Prusoff (1973), defined as: IC50/1+[conc. ligand/Kd].

T1 sequence (P21554 whole entry): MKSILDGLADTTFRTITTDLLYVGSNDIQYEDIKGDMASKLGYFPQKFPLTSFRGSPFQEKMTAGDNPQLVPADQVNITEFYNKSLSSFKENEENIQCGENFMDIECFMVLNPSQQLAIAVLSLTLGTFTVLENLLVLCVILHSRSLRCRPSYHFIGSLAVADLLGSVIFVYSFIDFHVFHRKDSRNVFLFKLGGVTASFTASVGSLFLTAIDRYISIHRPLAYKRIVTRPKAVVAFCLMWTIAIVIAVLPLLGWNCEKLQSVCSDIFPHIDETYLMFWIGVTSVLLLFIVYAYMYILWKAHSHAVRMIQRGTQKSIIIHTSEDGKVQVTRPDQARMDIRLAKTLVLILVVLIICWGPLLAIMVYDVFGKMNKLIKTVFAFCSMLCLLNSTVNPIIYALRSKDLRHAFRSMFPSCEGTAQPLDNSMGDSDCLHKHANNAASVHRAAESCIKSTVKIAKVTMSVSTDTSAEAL

Row | Ki [nM] | Compound
1 | ≤ 100 | Fc1ccc(CC2CN(c3ccc(Cl)cc3)C(c3ccc(Cl)cc3Cl)CO2)cc1F (stereo not shown) [Example 1]
2 | ≤ 800 | CC(C)(C)OC(=O)CC1OCC(c2ccc(Cl)cc2Cl)N(c2ccc(Cl)cc2)C1=O (stereo not shown) [Example 2]
3 | ≤ 800 | NCCC1CN(c2ccc(Cl)cc2)C(c2ccc(Cl)cc2Cl)CO1 (stereo not shown) [Example 5]
4 | ≤ 25 | O=S(=O)(NCCC1CN(c2ccc(Cl)cc2)C(c2ccc(Cl)cc2Cl)CO1)c1cccnc1 (stereo not shown) [Example 6]

Reference: patent US20100197564A1, “DIARYL MORPHOLINES AS CB1 MODULATORS” (Schering Corporation, priority 2007, published 2010)
